Measured values published in ChEMBL document CHEMBL1909046, “DrugMatrix in vitro pharmacology data”.

Experiments:
[1] = target: T1, Angiotensin-converting enzyme (Oryctolagus cuniculus, UniProt P12822); assay type: tissue-based, Lung;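 note: enzymatic inhibition of angiotensin-converting enzyme measured with FAPGG as the substrate; in other assays of this panel Not Active means under 50% inhibition at 10 µM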
T1 sequence (P12822 whole entry): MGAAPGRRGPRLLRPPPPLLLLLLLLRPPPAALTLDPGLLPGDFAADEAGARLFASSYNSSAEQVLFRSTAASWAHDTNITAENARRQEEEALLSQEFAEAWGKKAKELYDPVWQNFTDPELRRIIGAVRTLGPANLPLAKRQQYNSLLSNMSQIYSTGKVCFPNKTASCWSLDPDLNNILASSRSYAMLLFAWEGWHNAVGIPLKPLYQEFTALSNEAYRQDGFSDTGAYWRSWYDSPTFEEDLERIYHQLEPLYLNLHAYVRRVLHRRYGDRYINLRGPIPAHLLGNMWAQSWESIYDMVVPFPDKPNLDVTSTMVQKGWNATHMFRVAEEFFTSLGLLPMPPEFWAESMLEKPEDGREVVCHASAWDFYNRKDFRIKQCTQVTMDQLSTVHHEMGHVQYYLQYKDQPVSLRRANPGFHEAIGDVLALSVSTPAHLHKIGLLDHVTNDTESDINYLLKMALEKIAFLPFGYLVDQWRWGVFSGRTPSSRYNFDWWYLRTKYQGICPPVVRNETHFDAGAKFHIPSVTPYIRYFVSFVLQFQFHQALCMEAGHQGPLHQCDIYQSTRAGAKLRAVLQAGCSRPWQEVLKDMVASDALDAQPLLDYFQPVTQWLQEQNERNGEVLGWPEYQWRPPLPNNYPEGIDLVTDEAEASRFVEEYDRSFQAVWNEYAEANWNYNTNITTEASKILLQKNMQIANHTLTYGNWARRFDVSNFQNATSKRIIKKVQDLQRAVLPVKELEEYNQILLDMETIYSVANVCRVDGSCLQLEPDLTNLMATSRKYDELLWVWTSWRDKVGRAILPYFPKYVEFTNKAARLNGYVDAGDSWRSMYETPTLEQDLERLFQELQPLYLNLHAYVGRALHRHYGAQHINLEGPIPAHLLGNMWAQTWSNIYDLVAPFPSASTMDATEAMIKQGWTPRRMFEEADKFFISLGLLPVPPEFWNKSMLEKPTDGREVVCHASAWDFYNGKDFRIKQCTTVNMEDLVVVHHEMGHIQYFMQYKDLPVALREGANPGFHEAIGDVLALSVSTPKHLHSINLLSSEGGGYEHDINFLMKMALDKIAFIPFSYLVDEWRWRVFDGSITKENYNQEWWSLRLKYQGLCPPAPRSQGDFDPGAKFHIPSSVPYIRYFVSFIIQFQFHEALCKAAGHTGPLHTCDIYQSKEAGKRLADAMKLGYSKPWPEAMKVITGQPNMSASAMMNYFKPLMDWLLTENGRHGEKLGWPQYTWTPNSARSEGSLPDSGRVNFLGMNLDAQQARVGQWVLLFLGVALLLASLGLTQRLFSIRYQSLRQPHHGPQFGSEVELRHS

[2] = target: Beta-3 adrenergic receptor (Homo sapiens, UniProt P13945); assay: DRUGMATRIX: Adrenergic beta3 radioligand binding (ligand: [125I] Cyanopindolol); assay type: cell membranes, HEK293, Membrane; conditions: hek293; Not Active = under 50% inhibition at 10 µM
[3] = target: T2, Thromboxane-A synthase (Homo sapiens, UniProt P24557); assay: biochemical; assay type: tissue-based, Platelet; conditions: platelet;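 note: enzyme inhibition assay with PGH2 supplied as substrate; in other assays of this panel Not Active means under 50% inhibition at 10 µM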
T2 sequence (P24557 whole entry): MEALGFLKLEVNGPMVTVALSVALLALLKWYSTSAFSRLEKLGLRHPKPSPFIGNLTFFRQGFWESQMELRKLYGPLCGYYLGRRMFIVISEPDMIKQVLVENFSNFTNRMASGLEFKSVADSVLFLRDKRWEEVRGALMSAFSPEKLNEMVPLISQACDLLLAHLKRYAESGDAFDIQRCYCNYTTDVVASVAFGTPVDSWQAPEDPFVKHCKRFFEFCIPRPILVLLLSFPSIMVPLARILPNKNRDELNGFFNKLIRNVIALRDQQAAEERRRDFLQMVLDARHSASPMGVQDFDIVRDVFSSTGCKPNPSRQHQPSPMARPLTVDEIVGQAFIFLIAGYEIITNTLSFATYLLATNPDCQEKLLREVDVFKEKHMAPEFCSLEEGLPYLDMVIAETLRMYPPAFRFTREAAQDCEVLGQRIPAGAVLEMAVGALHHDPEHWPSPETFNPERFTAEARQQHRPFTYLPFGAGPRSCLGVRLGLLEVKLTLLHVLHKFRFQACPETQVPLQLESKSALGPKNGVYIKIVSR

[4] = target: Voltage-gated inwardly rectifying potassium channel KCNH2 (Homo sapiens, UniProt Q12809); conditions: hek293; note: in other assays of this panel Not Active means under 50% inhibition at 10 µM
[5] = target: Protein phosphatase 3 catalytic subunit alpha (Homo sapiens, UniProt Q08209); set-up: species or system Escherichia coli;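 note: inhibition of calcineurin (PP2B) enzyme activity, measured with DiFMUP as the substrate; in other assays of this panel Not Active means under 50% inhibition at 10 µM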
[6] = target: T3, Substance-K receptor (Homo sapiens, UniProt P21452); assay type: cell membranes, CHO, Membrane; note: in other assays of this panel Not Active means under 50% inhibition at 10 µM
T3 sequence (P21452 whole entry): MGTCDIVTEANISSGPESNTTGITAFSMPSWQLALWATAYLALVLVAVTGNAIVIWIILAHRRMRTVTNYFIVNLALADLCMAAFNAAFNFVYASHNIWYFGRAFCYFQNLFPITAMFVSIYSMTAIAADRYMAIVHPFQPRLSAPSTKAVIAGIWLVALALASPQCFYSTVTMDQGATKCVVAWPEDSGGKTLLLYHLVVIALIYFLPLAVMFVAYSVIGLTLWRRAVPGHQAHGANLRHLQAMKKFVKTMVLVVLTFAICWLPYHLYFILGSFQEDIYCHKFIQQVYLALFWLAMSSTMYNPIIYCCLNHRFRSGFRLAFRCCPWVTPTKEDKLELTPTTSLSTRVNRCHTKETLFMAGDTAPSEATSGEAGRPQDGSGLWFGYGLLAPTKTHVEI

Sequence of Voltage-gated inwardly rectifying potassium channel KCNH2 (Q12809 whole entry): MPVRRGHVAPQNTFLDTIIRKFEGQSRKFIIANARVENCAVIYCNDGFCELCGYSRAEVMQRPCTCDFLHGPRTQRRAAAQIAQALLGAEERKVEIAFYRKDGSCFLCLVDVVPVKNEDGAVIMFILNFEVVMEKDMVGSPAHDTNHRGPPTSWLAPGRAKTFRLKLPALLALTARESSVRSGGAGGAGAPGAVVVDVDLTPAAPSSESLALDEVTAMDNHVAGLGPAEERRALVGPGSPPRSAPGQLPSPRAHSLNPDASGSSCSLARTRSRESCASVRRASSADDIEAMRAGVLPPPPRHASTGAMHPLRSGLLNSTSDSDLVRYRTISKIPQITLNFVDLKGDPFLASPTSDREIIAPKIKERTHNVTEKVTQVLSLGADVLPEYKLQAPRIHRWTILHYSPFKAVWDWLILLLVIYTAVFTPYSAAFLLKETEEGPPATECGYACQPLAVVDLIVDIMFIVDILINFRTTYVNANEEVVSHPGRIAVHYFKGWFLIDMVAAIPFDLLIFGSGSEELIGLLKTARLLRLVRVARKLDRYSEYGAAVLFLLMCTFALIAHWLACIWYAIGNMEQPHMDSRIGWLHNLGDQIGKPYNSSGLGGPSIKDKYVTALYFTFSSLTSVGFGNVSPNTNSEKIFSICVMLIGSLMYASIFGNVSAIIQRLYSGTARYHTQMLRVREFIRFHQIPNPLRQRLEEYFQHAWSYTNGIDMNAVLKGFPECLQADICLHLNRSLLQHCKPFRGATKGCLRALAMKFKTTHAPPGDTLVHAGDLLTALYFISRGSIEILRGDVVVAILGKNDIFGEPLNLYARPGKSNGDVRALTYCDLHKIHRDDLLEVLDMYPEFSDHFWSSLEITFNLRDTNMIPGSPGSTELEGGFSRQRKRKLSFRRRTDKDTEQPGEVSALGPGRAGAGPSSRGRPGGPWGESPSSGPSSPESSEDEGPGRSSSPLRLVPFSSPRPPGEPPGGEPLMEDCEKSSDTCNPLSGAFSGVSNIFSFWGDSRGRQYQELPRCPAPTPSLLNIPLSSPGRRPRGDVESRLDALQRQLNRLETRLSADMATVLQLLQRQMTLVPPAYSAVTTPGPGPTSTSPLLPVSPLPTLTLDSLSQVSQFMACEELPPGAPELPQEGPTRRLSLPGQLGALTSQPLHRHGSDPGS
Sequence of Beta-3 adrenergic receptor (P13945 whole entry): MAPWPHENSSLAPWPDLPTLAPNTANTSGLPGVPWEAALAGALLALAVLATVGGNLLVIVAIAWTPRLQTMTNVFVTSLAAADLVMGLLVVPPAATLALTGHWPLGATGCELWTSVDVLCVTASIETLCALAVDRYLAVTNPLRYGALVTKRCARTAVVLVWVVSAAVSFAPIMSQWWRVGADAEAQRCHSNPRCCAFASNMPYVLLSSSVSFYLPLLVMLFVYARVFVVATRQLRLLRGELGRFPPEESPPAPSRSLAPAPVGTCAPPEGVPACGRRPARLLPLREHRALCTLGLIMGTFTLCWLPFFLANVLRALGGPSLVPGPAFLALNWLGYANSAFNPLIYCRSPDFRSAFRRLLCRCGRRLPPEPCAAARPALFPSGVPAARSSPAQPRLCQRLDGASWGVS

Molecule: O=C(O)c1ccccc1O [SALICYLIC ACID]
- IC50 [1]: Not Active
- IC50 [2]: Not Active
- IC50 [3]: Not Active
- IC50 [4]: Not Active
- Ki [4]: Not Active
- IC50 [5]: Not Active
- IC50 ([6]; cho): Not Active

Molecule: Nc1ccc(S(=O)(=O)NC(=O)c2ccccc2)cc1 [SULFABENZAMIDE]
- IC50 [1]: Not Active
- IC50 [2]: Not Active
- IC50 [3]: Not Active
- IC50 [4]: Not Active
- Ki [4]: Not Active
- IC50 [5]: Not Active
- IC50 ([6]; cho): Not Active

Molecule: C[C@@](Cc1ccc(O)c(O)c1)(NN)C(=O)O.O [CARBIDOPA]
- IC50 [1]: Not Active
- IC50 [2]: Not Active
- IC50 [3]: Not Active
- IC50 [4]: Not Active
- Ki [4]: Not Active
- IC50 [5]: Not Active
- IC50 ([6]; cho): Not Active

Molecule: CCCCCCCCNC(C)C(O)c1ccc(SC(C)C)cc1 (stereo unspecified) [SULOCTIDIL]
- IC50 [1]: Not Active
- IC50 [3]: Not Active
- IC50 [4]: Not Active
- Ki [4]: Not Active
- IC50 [5]: Not Active
- IC50 ([6]; read-out: IC50): 6.79 µM
- Ki ([6]; read-out: Ki): 2.26 µM

Molecule: CN1CCN(CCCN2c3ccccc3Sc3ccc(C(F)(F)F)cc32)CC1 [TRIFLUOPERAZINE]
- IC50 [1]: Not Active
- IC50 [2]: Not Active
- IC50 [3]: Not Active
- IC50 [5]: Not Active
- IC50 ([6]; cho): Not Active

Molecule: C[C@]12C=CC(=O)C=C1CC[C@@H]1[C@@H]2C(=O)C[C@@]2(C)[C@H]1CC[C@]2(O)C(=O)CO [PREDNISONE]
- IC50 [1]: Not Active
- IC50 [2]: Not Active
- IC50 [3]: Not Active
- IC50 [4]: Not Active
- Ki [4]: Not Active
- IC50 [5]: Not Active
- IC50 ([6]; cho): Not Active

Molecule: OCCOCCN1CCN(C2=Nc3ccccc3Sc3ccccc32)CC1 [QUETIAPINE]
- IC50 [1]: Not Active
- IC50 [2]: Not Active
- IC50 [3]: Not Active
- IC50 [5]: Not Active
- IC50 ([6]; cho): Not Active

Molecule: CC(C)NC[C@H](O)COc1cccc2ccccc12 [LEVOPROPRANOLOL]
- IC50 [1]: Not Active
- IC50 [3]: Not Active
- IC50 [4]: Not Active
- Ki [4]: Not Active
- IC50 [5]: Not Active
- IC50 ([6]; cho): Not Active

Molecule: O=C(O)CCCCC1CCSS1 (stereo not drawn) [LIPOIC ACID, ALPHA]
- IC50 [1]: Not Active
- IC50 [2]: Not Active
- IC50 [3]: Not Active
- IC50 [4]: Not Active
- Ki [4]: Not Active
- IC50 [5]: Not Active
- IC50 ([6]; cho): Not Active

Molecule: CC(C)NC[C@@H](O)COc1cccc2ccccc12 [DEXPROPRANOLOL]
- IC50 [1]: Not Active
- IC50 [2]: Not Active
- IC50 [3]: Not Active
- IC50 [4]: Not Active
- Ki [4]: Not Active
- IC50 [5]: Not Active
- IC50 ([6]; cho): Not Active

Molecule: Cc1ccc(C(=O)c2ccc(CC(=O)O)n2C)cc1 [TOLMETIN]
- IC50 [1]: Not Active
- IC50 [2]: Not Active
- IC50 [3]: Not Active
- IC50 [4]: Not Active
- Ki [4]: Not Active
- IC50 [5]: Not Active
- IC50 ([6]; cho): Not Active

Molecule: CC(=O)OCC(COC(C)=O)OC(C)=O [TRIACETIN]
- IC50 [1]: Not Active
- IC50 [2]: Not Active
- IC50 [3]: Not Active
- IC50 [4]: Not Active
- Ki [4]: Not Active
- IC50 [5]: Not Active
- IC50 ([6]; cho): Not Active

Molecule: TRANSPLATIN
- IC50 [1]: Not Active
- Ki [1]: Not Active
- IC50 [2]: Not Active
- Ki [2]: Not Active
- IC50 [3]: Not Active
- Ki [3]: Not Active
- IC50 [4]: Not Active
- Ki [4]: Not Active
- IC50 [5]: Not Active
- Ki [5]: Not Active
- IC50 ([6]; cho): Not Active
- Ki ([6]; cho): Not Active
